Assay results from US12365696B2, “Small-molecule focal adhesion kinase (FAK) inhibitors” (DANA-FARBER CANCER INSTITUTE, INC., priority 2019, dated 2025).

biological target: PTK2 (FAK) (Homo sapiens (Human), UniProt Q05397); assay: Z′-LYTE kinase assay (SelectScreen Biochemical Kinase Profiling), enzymatic IC50; settings: FAK IC50
Method: Enzymatic IC50 data was obtained through ThermoFisher Scientific SelectScreen™ Biochemical Kinase Profiling Service, using a Z′-LYTE™ kinase-specific assay, as described below.
The test compounds were screened in 1% dimethyl sulfoxide (DMSO) (final) in the well. For 10 point titrations, 3-fold serial dilutions were conducted from the starting concentration.
All peptide/kinase mixtures were diluted to a 2× working concentration in the appropriate kinase buffer (see section kinase specific assay conditions for a complete description).
All ATP solutions were diluted to a 4× working concentration in kinase buffer (50 mM 4-(2-hydroxyethyl)-1-piperazineethanesulfonic acid (HEPES) pH 7.5, 0.01% BRIJ-35, 10 mM MgCl2, 1 mM ethylene glycol-bis(β-aminoethyl ether)-N,N,N′,N′-tetraacetic acid (EGTA)). ATP Km apparent was previously determined using a Z′-LYTE assay.
The development reagent was diluted in development buffer (see section kinase-specific assay conditions—direct and cascade for a complete description).
Using a bar-coded Corning, low volume NBS, black 384-well plate (Corning Cat. #4514), 100 nL of 100× test compound in 100% DMSO was added. […] The plate was then shaken for 30 seconds and held at room temperature for a 60 minute kinase reaction incubation period. At which point 5 μL of development reagent solution was added and the plate was shaken for 30 seconds. The plate was held again at room temperature for a 60 minute development reaction incubation period and then read on a fluorescence plate reader and analyzed.
The 2×PTK2 (FAK)/Tyr 07 mixture was prepared in 50 mM HEPES pH 7.5, 0.01% BRIJ-35, 10 mM MgCl2, 1 mM EGTA. […] After the 1 hour kinase reaction incubation period, 5 μL of a 1:16 dilution of development reagent B was added.
SelectScreen Kinase Profiling Service uses XLfit from ID Business Solutions (IDBS). The dose response curve was curve fit to model number 205 (sigmoidal dose-response model).

PTK2 (FAK), sequence (Q05397 whole entry): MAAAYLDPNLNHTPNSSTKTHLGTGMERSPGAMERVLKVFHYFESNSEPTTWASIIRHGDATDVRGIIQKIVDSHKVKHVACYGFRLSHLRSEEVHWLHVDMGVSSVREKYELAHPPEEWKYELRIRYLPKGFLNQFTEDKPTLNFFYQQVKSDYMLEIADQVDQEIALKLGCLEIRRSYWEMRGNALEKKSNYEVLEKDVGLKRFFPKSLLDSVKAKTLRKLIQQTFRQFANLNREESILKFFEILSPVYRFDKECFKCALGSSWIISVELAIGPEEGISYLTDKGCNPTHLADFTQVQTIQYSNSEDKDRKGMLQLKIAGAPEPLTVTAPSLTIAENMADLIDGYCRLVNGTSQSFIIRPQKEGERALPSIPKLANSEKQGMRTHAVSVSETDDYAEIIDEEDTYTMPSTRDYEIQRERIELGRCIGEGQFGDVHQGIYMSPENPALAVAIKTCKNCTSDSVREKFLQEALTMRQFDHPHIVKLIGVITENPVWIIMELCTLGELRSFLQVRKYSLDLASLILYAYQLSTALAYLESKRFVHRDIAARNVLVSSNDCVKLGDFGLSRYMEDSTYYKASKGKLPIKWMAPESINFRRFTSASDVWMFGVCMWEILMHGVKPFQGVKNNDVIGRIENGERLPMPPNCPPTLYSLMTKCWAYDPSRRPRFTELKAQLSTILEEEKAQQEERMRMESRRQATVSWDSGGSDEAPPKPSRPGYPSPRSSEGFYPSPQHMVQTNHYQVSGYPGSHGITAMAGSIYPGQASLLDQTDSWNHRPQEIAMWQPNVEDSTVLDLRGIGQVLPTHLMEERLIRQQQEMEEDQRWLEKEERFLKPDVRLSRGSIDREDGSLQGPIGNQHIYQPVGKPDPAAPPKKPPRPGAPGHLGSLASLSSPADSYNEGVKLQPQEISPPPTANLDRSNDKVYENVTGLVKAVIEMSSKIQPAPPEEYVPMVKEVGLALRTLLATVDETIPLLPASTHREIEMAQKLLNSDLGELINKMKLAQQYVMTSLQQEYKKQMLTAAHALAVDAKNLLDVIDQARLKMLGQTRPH

Structure (SMILES)	loss in potency relative to 3	lower potency relative to 5
COc1cc(N2CCC(N3CCN(C)CC3)CC2)ccc1Nc1ncc2c(n1)N(C)c1scnc1C(=O)N2 [Compound 6, 6-((2-methoxy-4-(4-(4-methylpiperazin-1-yl)piperidin-1-yl)phenyl)amino)-4-methyl-4,9-dihydro-10H-pyrimido[5,4-b]thiazolo[5,4-e][1,4]diazepin-10-one]	8 fold	
COc1cc(N2CCC(N3CCN(C)CC3)CC2)ccc1Nc1ncc2c(n1)N(C)c1sc(C(F)(F)F)nc1C(=O)N2C [Compound 177, 6-((2-methoxy-4-(4-(4-methylpiperazin-1-yl)piperidin-1-yl)phenyl)amino)-4,9-dimethyl-2-(trifluoromethyl)-4,9-dihydro-10H-pyrimido[5,4-b]thiazolo[5,4-e][1,4]diazepin-10-one]		~10 fold

same assay, conditions: enzymatic, Z′-LYTE; read-out: FAK IC50

Structure (SMILES)	IC50
Cc1nc2c(s1)N(C)c1nc(Nc3ccc(N4CCN(C)CC4)cc3)ncc1NC2=O [Compound 1, 2,4-dimethyl-6-((4-(4-methylpiperazin-1-yl)phenyl)amino)-4,9-dihydro-10H-pyrimido[5,4-b]thiazolo[5,4-e][1,4]diazepin-10-one]	228 nM
Cc1nc2c(s1)N(C)c1nc(Nc3ccc(N4CCC(O)CC4)cc3)ncc1NC2=O [Compound 2, 6-((4-(4-hydroxypiperidin-1-yl)phenyl)amino)-2,4-dimethyl-4,9-dihydro-10H-pyrimido[5,4-b]thiazolo[5,4-e][1,4]diazepin-10-one]	580 nM
COc1cc(Nc2ncc3c(n2)N(C)c2sc(C)nc2C(=O)N3)ccc1N1CCN(C)CC1 [Compound 4, 6-((3-methoxy-4-(4-methylpiperazin-1-yl)phenyl)amino)-2,4-dimethyl-4,9-dihydro-10H-pyrimido[5,4-b]thiazolo[5,4-e][1,4]diazepin-10-one]	90.4 nM
COc1cc(N2CCC(N3CCN(C)CC3)CC2)ccc1Nc1ncc2c(n1)N(C)c1scnc1C(=O)N2 [Compound 6, 6-((2-methoxy-4-(4-(4-methylpiperazin-1-yl)piperidin-1-yl)phenyl)amino)-4-methyl-4,9-dihydro-10H-pyrimido[5,4-b]thiazolo[5,4-e][1,4]diazepin-10-one]	510 nM
COc1cc(N2CCN(C)CC2)ccc1Nc1ncc2c(n1)N(C)c1sc(C)nc1C(=O)N2 [Compound 7, 6-((2-methoxy-4-(4-methylpiperazin-1-yl)phenyl)amino)-2,4-dimethyl-4,9-dihydro-10H-pyrimido[5,4-b]thiazolo[5,4-e][1,4]diazepin-10-one]	48.7 nM
CCc1nc2c(s1)N(C)c1nc(Nc3ccc(N4CCC(N5CCN(C)CC5)CC4)cc3OC)ncc1NC2=O [Compound 8, 2-ethyl-6-((2-methoxy-4-(4-(4-methylpiperazin-1-yl)piperidin-1-yl)phenyl)amino)-4-methyl-4,9-dihydro-10H-pyrimido[5,4-b]thiazolo[5,4-e][1,4]diazepin-10-one]	32.1 nM
CCN1c2nc(Nc3ccc(N4CCC(N5CCN(C)CC5)CC4)cc3OC)ncc2NC(=O)c2nc(C)sc21 [Compound 9, 4-ethyl-6-((2-methoxy-4-(4-(4-methylpiperazin-1-yl)piperidin-1-yl)phenyl)amino)-2-methyl-4,9-dihydro-10H-pyrimido[5,4-b]thiazolo[5,4-e][1,4]diazepin-10-one]	45.1 nM
CNC(=O)c1ccc(Nc2ncc3c(n2)N(C)c2sc(C)nc2C(=O)N3)cc1 [Compound 10, 4-((2,4-dimethyl-10-oxo-9,10-dihydro-4H-pyrimido[5,4-b]thiazolo[5,4-e][1,4]diazepin-6-yl)amino)-N-methylbenzamide]	129 nM
COc1cc(N2CCN(S(C)(=O)=O)CC2)ccc1Nc1ncc2c(n1)N(C)c1sc(C)nc1C(=O)N2 [Compound 11, 6-((2-methoxy-4-(4-(methylsulfonyl)piperazin-1-yl)phenyl)amino)-2,4-dimethyl-4,9-dihydro-10H-pyrimido[5,4-b]thiazolo[5,4-e][1,4]diazepin-10-one]	17.6 nM
C=CC(=O)N1CCN(c2ccc(Nc3ncc4c(n3)N(C)c3sc(C)nc3C(=O)N4C)c(OC)c2)CC1 [Compound 13, 6-((4-(4-acryloylpiperazin-1-yl)-2-methoxyphenyl)amino)-2,4,9-trimethyl-4,9-dihydro-10H-pyrimido[5,4-b]thiazolo[5,4-e][1,4]diazepin-10-one]	53.6 nM
Cc1nc2c(s1)N(C)c1nc(Nc3ccc(N4CCN(C)CC4)cc3OCCO)ncc1N(C)C2=O [Compound 17, 6-((2-(2-hydroxyethoxy)-4-(4-methylpiperazin-1-yl)phenyl)amino)-2,4,9-trimethyl-4,9-dihydro-10H-pyrimido[5,4-b]thiazolo[5,4-e][1,4]diazepin-10-one]	465 nM
Cc1nc2c(s1)N(C)c1nc(Nc3ccc(N4CCN(C)CC4)cn3)ncc1N(C)C2=O [Compound 24, 2,4,9-trimethyl-6-((5-(4-methylpiperazin-1-yl)pyridin-2-yl)amino)-4,9-dihydro-10H-pyrimido[5,4-b]thiazolo[5,4-e][1,4]diazepin-10-one]	196 nM
Cc1nc2c(s1)N(C)c1nc(Nc3cnn(C)c3)ncc1N(C)C2=O [Compound 26, 2,4,9-trimethyl-6-((1-methyl-1H-pyrazol-4-yl)amino)-4,9-dihydro-10H-pyrimido[5,4-b]thiazolo[5,4-e][1,4]diazepin-10-one]	666 nM
COc1cc(N2CCC(N3CCN(C)CC3)CC2)ccc1Nc1ncc2c(n1)N(C)c1sc(C(F)(F)F)nc1C(=O)N2C [Compound 177, 6-((2-methoxy-4-(4-(4-methylpiperazin-1-yl)piperidin-1-yl)phenyl)amino)-4,9-dimethyl-2-(trifluoromethyl)-4,9-dihydro-10H-pyrimido[5,4-b]thiazolo[5,4-e][1,4]diazepin-10-one]	134 nM
CN1CCN(c2ccc(Nc3ncc4c(n3)N(C)c3sc(-c5ccccc5)nc3C(=O)N4C)cc2)CC1 [Compound 184, 4,9-dimethyl-6-((4-(4-methylpiperazin-1-yl)phenyl)amino)-2-phenyl-4,9-dihydro-10H-pyrimido[5,4-b]thiazolo[5,4-e][1,4]diazepin-10-one]	> 10000 nM
COc1cc(N2CCC(N3CCN(C)CC3)CC2)ccc1Nc1ncc2c(n1)N(C)c1sc(-c3ccccc3)nc1C(=O)N2C [Compound 186, 6-((2-methoxy-4-(4-(4-methylpiperazin-1-yl)piperidin-1-yl)phenyl)amino)-4,9-dimethyl-2-phenyl-4,9-dihydro-10H-pyrimido[5,4-b]thiazolo[5,4-e][1,4]diazepin-10-one]	> 10000 nM
CCc1nc2c(s1)N(C)c1nc(Nc3ccc(N4CCC(N5CCN(C)CC5)CC4)cc3OC)ncc1N(C)C2=O [Compound 193, 2-ethyl-6-((2-methoxy-4-(4-(4-methylpiperazin-1-yl)piperidin-1-yl)phenyl)amino)-4,9-dimethyl-4,9-dihydro-10H-pyrimido[5,4-b]thiazolo[5,4-e][1,4]diazepin-10-one]	31.7 nM
COc1cc(Nc2ncc3c(n2)N(C)c2sc(C)nc2C(=O)N3)ccc1N1CCC(N2CCN(C)CC2)CC1 [Compound 194, 6-((3-methoxy-4-(4-(4-methylpiperazin-1-yl)piperidin-1-yl)phenyl)amino)-2,4-dimethyl-4,9-dihydro-10H-pyrimido[5,4-b]thiazolo[5,4-e][1,4]diazepin-10-one]	55.7 nM
COc1cc(N2CCN(C3CCN(C)CC3)CC2)ccc1Nc1ncc2c(n1)N(C)c1sc(C)nc1C(=O)N2C [Compound 195, 6-((2-methoxy-4-(4-(1-methylpiperidin-4-yl)piperazin-1-yl)phenyl)amino)-2,4,9-trimethyl-4,9-dihydro-10H-pyrimido[5,4-b]thiazolo[5,4-e][1,4]diazepin-10-one]	62.9 nM
COc1cc(N2CCN(C)CC2=O)ccc1Nc1ncc2c(n1)N(C)c1sc(C)nc1C(=O)N2C [Compound 196, 6-((2-methoxy-4-(4-methyl-2-oxopiperazin-1-yl)phenyl)amino)-2,4,9-trimethyl-4,9-dihydro-10H-pyrimido[5,4-b]thiazolo[5,4-e][1,4]diazepin-10-one]	82.4 nM
COc1cc(N2CCN(C(C)=O)CC2)ccc1Nc1ncc2c(n1)N(C)c1sc(C)nc1C(=O)N2C [Compound 199, 6-((4-(4-acetylpiperazin-1-yl)-2-methoxyphenyl)amino)-2,4,9-trimethyl-4,9-dihydro-10H-pyrimido[5,4-b]thiazolo[5,4-e][1,4]diazepin-10-one]	45.7 nM
COc1cc(N2CCN(CCN(C)C)CC2)ccc1Nc1ncc2c(n1)N(C)c1sc(C)nc1C(=O)N2C [Compound 200, 6-((4-(4-(2-(dimethylamino)ethyl)piperazin-1-yl)-2-methoxyphenyl)amino)-2,4,9-trimethyl-4,9-dihydro-10H-pyrimido[5,4-b]thiazolo[5,4-e][1,4]diazepin-10-one]	67.2 nM
Cc1nc2c(s1)N(C)c1nc(Nc3ccc(N4CCN(C)CC4)cc3OCC(F)(F)F)ncc1N(C)C2=O [Compound 201, 2,4,9-trimethyl-6-((4-(4-methylpiperazin-1-yl)-2-(2,2,2-trifluoroethoxy)phenyl)amino)-4,9-dihydro-10H-pyrimido[5,4-b]thiazolo[5,4-e][1,4]diazepin-10-one]	83.5 nM
CCCOc1cc(N2CCN(C)CC2)ccc1Nc1ncc2c(n1)N(C)c1sc(C)nc1C(=O)N2C [Compound 202, 2,4,9-trimethyl-6-((4-(4-methylpiperazin-1-yl)-2-propoxyphenyl)amino)-4,9-dihydro-10H-pyrimido[5,4-b]thiazolo[5,4-e][1,4]diazepin-10-one]	155 nM

same assay, conditions: phenyl substituent at thiazole 2-position

Structure (SMILES)	FAK inhibitory activity (in words)
CN1CCN(c2ccc(Nc3ncc4c(n3)N(C)c3sc(-c5ccccc5)nc3C(=O)N4C)cc2)CC1 [Compound 184, 4,9-dimethyl-6-((4-(4-methylpiperazin-1-yl)phenyl)amino)-2-phenyl-4,9-dihydro-10H-pyrimido[5,4-b]thiazolo[5,4-e][1,4]diazepin-10-one]	abrogated activity
